From patent US20240270821A1, “GIP/GLP1/GCG TRI-RECEPTOR AGONISTS AND USES THEREOF” (priority 2023, published 2024)
Starred links: 1 amine or outer side, 2 acyl side, 3 side chain; linkers in the order of their positions; H or OH if unused. Non-standard residues stand in square brackets, D forms with d. Groups on a side chain read outwards from the residue. No end group written: not given here. *: point of attachment. C20 diacid = O=C(O)CCCCCCCCCCCCCCCCCCC(=O)*; C18 diacid = O=C(O)CCCCCCCCCCCCCCCCC(=O)*; γGlu = O=C(O)[C@H](CCC(=O)[*:2])N[*:1]; αMe4Pal = C[C@](N)(Cc1ccncc1)C(=O)O; αMeY = C[C@](N)(Cc1ccc(O)cc1)C(=O)O; 4Pal = N[C@@H](Cc1ccncc1)C(=O)O; αMeL = CC(C)C[C@](C)(N)C(=O)O; Orn = NCCC[C@H](N)C(=O)O; Dab = NCC[C@H](N)C(=O)O; AEEA = NCCOCCOCC(=O)O; Aib = CC(C)(N)C(=O)O

Experiments:
[1] = biological target: T1, hGLP-1R (Homo sapiens, UniProt P43220); experiment: Functional cAMP activity in the presence of 1% HSA; type: cell-based; details: read-out: cAMP Rel EC50, hGLP-1R
T1 sequence (P43220 24-463): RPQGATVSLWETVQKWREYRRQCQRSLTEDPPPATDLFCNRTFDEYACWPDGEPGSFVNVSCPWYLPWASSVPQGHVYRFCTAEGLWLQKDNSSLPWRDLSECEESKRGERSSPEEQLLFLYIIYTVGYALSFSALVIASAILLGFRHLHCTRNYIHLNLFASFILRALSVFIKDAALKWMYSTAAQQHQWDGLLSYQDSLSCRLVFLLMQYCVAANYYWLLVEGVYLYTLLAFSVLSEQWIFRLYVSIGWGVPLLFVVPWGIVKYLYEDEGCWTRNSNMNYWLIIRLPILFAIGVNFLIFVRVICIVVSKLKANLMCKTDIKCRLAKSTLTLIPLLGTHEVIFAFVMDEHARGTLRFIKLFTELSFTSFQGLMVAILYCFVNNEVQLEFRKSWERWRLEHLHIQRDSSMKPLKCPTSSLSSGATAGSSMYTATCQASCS

[2] = biological target: T2, hGIPR (Homo sapiens, UniProt P48546); experiment: Functional cAMP activation in the presence of 0.1% casein (no HSA); type: cell-based; details: in the presence of 0.1% casein (no HSA); geometric mean; read-out: Relative cAMP EC50, hGIPR;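 also: intracellular cAMP rise after 30 min at 37 °C read by HTRF against a standard curve, scaled between buffer alone (0%) and top control ligand concentration (100%), four-parameter fit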
T2 sequence (P48546 22-466): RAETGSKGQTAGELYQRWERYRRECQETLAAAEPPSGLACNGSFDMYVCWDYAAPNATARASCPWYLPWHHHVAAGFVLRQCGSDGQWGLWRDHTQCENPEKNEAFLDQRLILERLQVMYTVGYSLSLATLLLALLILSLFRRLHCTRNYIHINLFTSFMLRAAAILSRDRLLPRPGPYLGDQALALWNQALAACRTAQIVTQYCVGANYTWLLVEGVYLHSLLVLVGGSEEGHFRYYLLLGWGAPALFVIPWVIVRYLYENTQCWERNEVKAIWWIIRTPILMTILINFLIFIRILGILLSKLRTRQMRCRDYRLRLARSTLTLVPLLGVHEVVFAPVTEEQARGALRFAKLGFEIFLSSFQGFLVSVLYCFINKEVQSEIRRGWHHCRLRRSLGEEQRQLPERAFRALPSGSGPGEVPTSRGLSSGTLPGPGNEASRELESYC

[3] = biological target: hGcgR (Homo sapiens, UniProt P47871); experiment: as above; type: cell-based; details: in the presence of 0.1% casein (no HSA); geometric mean; read-out: Relative cAMP EC50, hGcgR;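 also: intracellular cAMP rise after 30 min at 37 °C, read by HTRF against a cAMP standard curve, scaled from buffer only (0%) to maximal control ligand response (100%)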
Sequence of hGcgR (P47871 26-477): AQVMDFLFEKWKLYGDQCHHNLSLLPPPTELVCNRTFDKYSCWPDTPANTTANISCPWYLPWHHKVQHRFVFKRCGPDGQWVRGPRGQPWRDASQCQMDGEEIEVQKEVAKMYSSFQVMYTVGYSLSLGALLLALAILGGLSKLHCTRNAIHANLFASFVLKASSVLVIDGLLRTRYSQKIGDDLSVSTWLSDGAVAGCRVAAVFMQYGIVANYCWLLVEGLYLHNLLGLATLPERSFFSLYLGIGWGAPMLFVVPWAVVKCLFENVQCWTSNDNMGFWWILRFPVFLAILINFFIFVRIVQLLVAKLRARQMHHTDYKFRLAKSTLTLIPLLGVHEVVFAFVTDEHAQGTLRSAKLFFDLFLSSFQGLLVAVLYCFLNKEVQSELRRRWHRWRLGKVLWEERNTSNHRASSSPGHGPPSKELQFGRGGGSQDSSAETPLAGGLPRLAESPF

[4] = biological target: T1, hGLP-1R; experiment: as above; type: cell-based; details: in the presence of 0.1% casein (no HSA); geometric mean; read-out: Relative cAMP EC50, hGLP-1R
[5] = biological target: human GLP1-R (Homo sapiens, UniProt P43220); experiment: GLP1-R internalization assay in HEK293 cells; type: cell-based; details: for EC50: HEK293 cells expressing SNAP-GLP-1R, read-out: GLP1R Internalization EC50; for Internalization % TOP: normalized to maximum concentration of GLP-1 (100%)
Sequence of human GLP1-R (P43220 24-463): as the sequence (P43220 24-463) above

[6] = biological target: T2, hGIPR; experiment: Functional cAMP activity in the presence of 1% HSA; type: cell-based; details: read-out: cAMP Rel EC50, hGIPR
[7] = biological target: human GcgR (Homo sapiens, UniProt P47871); experiment: Functional cAMP activity in the presence of 1% HSA; type: cell-based; details: read-out: cAMP Rel EC50, hGcgR
Sequence of human GcgR (P47871 26-477): as the sequence (P47871 26-477) above

[8] = biological target: human GLP-1R (SNAP-GLP-1R expressed in HEK293 cells) (human) (UniProt P43220); experiment: cell-based or functional assay
Sequence of human GLP-1R (SNAP-GLP-1R expressed in HEK293 cells) (human) (P43220 24-463): as the sequence (P43220 24-463) above

[9] = biological target: T3, human GIP receptor (human) (UniProt P48546); experiment: cell-based or functional assay
T3 sequence (looked up): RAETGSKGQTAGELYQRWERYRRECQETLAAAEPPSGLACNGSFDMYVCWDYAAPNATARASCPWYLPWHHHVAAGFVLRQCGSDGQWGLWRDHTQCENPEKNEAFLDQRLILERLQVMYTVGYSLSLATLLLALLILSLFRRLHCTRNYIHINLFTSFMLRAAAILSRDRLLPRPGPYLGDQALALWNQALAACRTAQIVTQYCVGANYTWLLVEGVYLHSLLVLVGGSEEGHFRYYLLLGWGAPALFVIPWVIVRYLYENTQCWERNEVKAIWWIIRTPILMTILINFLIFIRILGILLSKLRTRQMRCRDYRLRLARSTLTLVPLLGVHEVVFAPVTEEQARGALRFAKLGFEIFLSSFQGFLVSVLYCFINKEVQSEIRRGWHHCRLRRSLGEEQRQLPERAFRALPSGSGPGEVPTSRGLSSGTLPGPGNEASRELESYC

[10] = biological target: human glucagon receptor (human) (UniProt P47871); experiment: cell-based or functional assay
Sequence of human glucagon receptor (human) (P47871 26-477): as the sequence (P47871 26-477) above

[11] = biological target: T1, hGLP-1R; experiment: cell-based or functional assay
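For Relative cAMP EC50, hGLP-1R in this document: intracellular cAMP rise after 30 min at 37 °C read by HTRF, normalized between buffer only (0%) and maximal control ligand (100%), four-parameter variable-slope fit.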

Molecule	EC50 [1]	EC50 [2]	EC50 [3]	EC50 [4]	EC50 [5]	Internalization % TOP [5]	EC50 [6]	EC50 [7]	GLP1R Internalization EC50 [8]	Internalization % TOP [8]	Relative cAMP EC50 [9]	cAMP Rel EC50 (1% HSA) [9]	Relative cAMP EC50 [10]	cAMP Rel EC50 (1% HSA) [10]	Relative cAMP EC50 [11]	cAMP Rel EC50 (1% HSA) [11]	cAMP Rel EC50, nM (1% HSA) [9]	cAMP Rel EC50, nM (1% HSA) [10]	cAMP Rel EC50, nM (1% HSA) [11]
H-Y[Aib]QGTFTSD[4Pal]SR[αMeL]LDKK([AEEA-γGlu-C18 diacid])AQ[Aib]AFIEYLLE[Aib]GPSSGAPPPSGE-NH2 [Example 114]	1370 nM	0.14 nM	5.63 nM	6.38 nM	47.2 nM	62.9%	19.6 nM	1120 nM	–	–	–	–	–	–	–	–	–	–	–
H-Y[Aib]QGTFTSD[4Pal]S[Orn][αMeL]LDKK([AEEA-γGlu-C18 diacid])AQ[Aib]AFIEWLLEGGPSSGEPPPSGE-NH2 [Example 115]	1460 nM	0.457 nM	10.6 nM	7.6 nM	255 nM	56.5%	73.9 nM	2210 nM	–	–	–	–	–	–	–	–	–	–	–
H-Y[Aib]QGTFTSD[4Pal]S[Orn][αMeL]LDKK([AEEA-γGlu-C18 diacid])AQ[αMe4Pal]AFIEYLIE[Aib]GESSGAPPPSGE-NH2 [Example 222]	753 nM	0.228 nM	2.33 nM	3.64 nM	34.6 nM	52.4%	52.5 nM	440 nM	–	–	–	–	–	–	–	–	–	–	–
Y[Aib]QGTFTSDFSK[αMeL]LDKK([AEEA-γGlu-C18 diacid])AQ[Aib]AFIEYLLEGGPSSGAPPPSEG-NH2 [Example 48]	570 nM	0.27 nM	3.8 nM	2.99 nM	44 nM	55.2%	46.9 nM	728 nM	–	–	–	–	–	–	–	–	–	–	–
Y[Aib]QGTFTSDFSK[αMeL]LDKK([AEEA-γGlu-C18 diacid])AQ[Aib]QFIEYLLAGGPSSGEPPPSEG-NH2 [Example 26]	623 nM	0.2 nM	4.82 nM	3.44 nM	96.1 nM	75.6%	35.4 nM	980 nM	–	–	–	–	–	–	–	–	–	–	–
Y[Aib]QGTFTSDFS[Dab][αMeL]LDKK([AEEA-γGlu-C18 diacid])AQ[Aib]AFIEYLLEGGPSSGAPPPGGS-NH2 [Example 67]	683 nM	0.34 nM	3.7 nM	4.07 nM	50.9 nM	31.1%	73.3 nM	781 nM	–	–	–	–	–	–	–	–	–	–	–
Y[Aib]QGTFTSDFS[Orn][αMeL]LDKK([AEEA-AEEA-γGlu-C18 diacid])AQ[Aib]AFIEYLLE[dA]GPSSGEPPPSEG-NH2 [Example 116]	401 nM	0.382 nM	3.96 nM	7.83 nM	80.7 nM	46.2%	40.4 nM	882 nM	–	–	–	–	–	–	–	–	–	–	–
Y[Aib]QGTFTSDFS[Orn][αMeL]LDKK([AEEA-AEEA-γGlu-C18 diacid])AQ[Aib]AFIEYLLE[dA]GPSSG[4Pal]PPPSGS-NH2 [Example 254]	265 nM	0.121 nM	4.9 nM	3.08 nM	31.9 nM	47.8%	21.4 nM	767 nM	–	–	–	–	–	–	–	–	–	–	–
Y[Aib]QGTFTSDFS[Orn][αMeL]LDKK([AEEA-γGlu-C18 diacid])AQ[Aib]AFIEYLLEGGPSSGAPPPSEG-NH2 [Example 50]	1110 nM	0.29 nM	4.25 nM	4.65 nM	30.1 nM	31.1%	69.6 nM	1040 nM	–	–	–	–	–	–	–	–	–	–	–
Y[Aib]QGTFTSD[4Pal]SK[αMeL]LDKK([AEEA-γGlu-C20 diacid])AQ[Aib]AFIEYLLAGGPSSGEPPPSGE-NH2 [Example 28]	686 nM	0.255 nM	12.6 nM	3.68 nM	81.8 nM	76.2%	63.8 nM	1550 nM	–	–	–	–	–	–	–	–	–	–	–
Y[Aib]QGTFTSD[4Pal]SQ[αMeL]LD[Orn]K([γGlu-γGlu-C18 diacid])AQ[αMe4Pal]QFIE[αMeY]LIEGGPSSGEPPPSGSEE-NH2 [Example 1026]	299 nM	0.308 nM	6.32 nM	1.77 nM	47.4 nM	80%	61.3 nM	2080 nM	–	–	–	–	–	–	–	–	–	–	–
YXQGTXTSDXSILLDKKAQXAFIEYLEEGGPSSGAPPPSGTGE (synthetic construct; SITE 2: note = 2-Aminoisobutyric Acid; SITE 6: note = alpha-methyl-2-fluoro-L-phenylalanine; SITE 10: note = 3-(4-Pyridyl)-L-alanine; SITE 17: note = Lysine is chemically modified through conjugation of the epsilon-amino group of the Lysine side chain with (gamma-Glu)2-CO-(CH2)1) [Example 510]	–	–	–	–	–	–	–	–	11.8 nM	113%	–	–	–	–	–	–	–	–	–
Y[Aib]QGTFTSDYSI[αMeL]LDKQAAK([AEEA-AEEA-γGlu-C20 diacid])QFVEWLIA[Aib]GPSSGEPPPAEG-NH2 [Example 334]	–	–	–	–	–	–	–	–	28.3 nM	96.8%	0.223 nM	72.1 nM	6.77 nM	2070 nM	0.707 nM	171 nM	–	–	–
YXQGTFTSDYSKXLDKKAQXAFIEYLLEGGESSGAPPPSGS (synthetic construct; SITE 2: note = 2-Aminoisobutyric Acid; SITE 13: note = alpha-methyl-leucine; SITE 17: note = Lysine is chemically modified through conjugation of the epsilon-amino group of the Lysine side chain with (2-[2-(2-Amino-ethoxy)-ethoxy]-acetyl)-(gamma-Glu)-CO-(CH2) 16-CO2H; SITE 20: n) [Example 358]	–	–	–	–	–	–	–	–	21.5 nM	83.1%	0.182 nM	–	2.78 nM	–	2.31 nM	–	38.8 nM	876 nM	492 nM
YXQGTFTSDFSXXLDKKAQXAFIEWLLEGGPSSGAPPPSGE (synthetic construct; SITE 2: note = 2-Aminoisobutyric Acid; SITE 12: note = L-ornithine; SITE 13: note = alpha-methyl-leucine; SITE 17: note = Lysine is chemically modified through conjugation of the epsilon-amino group of the Lysine side chain with (2-[2-(2-Amino-ethoxy)-ethoxy]-acetyl)-(gamma-Glu)) [Example 119]	–	–	–	–	–	–	–	–	73.5 nM	43.4%	–	–	–	–	–	–	–	–	–
YXQGTFTSDYSXXLDKKAQXAFIEYLLEGGESSGAPPPSGS (synthetic construct; SITE 2: note = 2-Aminoisobutyric Acid; SITE 12: note = L-ornithine; SITE 13: note = alpha-methyl-leucine; SITE 17: note = Lysine is chemically modified through conjugation of the epsilon-amino group of the Lysine side chain with (2-[2-(2-Amino-ethoxy)-ethoxy]-acetyl)-(gamma-Glu)) [Example 359]	–	–	–	–	–	–	–	–	49.6 nM	74.4%	0.281 nM	–	2.1 nM	–	4.61 nM	–	103 nM	957 nM	826 nM
YXQGTXTSDXXIXLDXKAQXEFIEXLVEGGPSSGAPPPSGS (synthetic construct; SITE 2: note = 2-Aminoisobutyric Acid; SITE 6: note = alpha-methyl-2-fluoro-L-phenylalanine; SITE 10: note = 3-(4-Pyridyl)-L-alanine; SITE 11: note = alpha-methyl-L-serine; SITE 13: note = alpha-methyl-leucine; SITE 16: note = L-ornithine; SITE 17: note = Lysine is chemically mo) [Example 694]	–	–	–	–	–	–	–	–	21.8 nM	97.3%	–	–	–	–	–	–	–	–	–
YXQGTXTSDXXIXLDXKAQXEFIEXLIEGGPSSGAPPPSGSE (synthetic construct; SITE 2: note = 2-Aminoisobutyric Acid; SITE 6: note = alpha-methyl-2-fluoro-L-phenylalanine; SITE 10: note = 3-(4-Pyridyl)-L-alanine; SITE 11: note = alpha-methyl-L-serine; SITE 13: note = alpha-methyl-leucine; SITE 16: note = L-ornithine; SITE 17: note = Lysine is chemically mo) [Example 712]	–	–	–	–	–	–	–	–	35.3 nM	109%	–	–	–	–	–	–	–	–	–
